Measured values reported in a melting point compilation (Tetko et al.; mined from patent text by program, amines drawn as free bases though some values may be those of a salt).

Row | melting point [°C] | Compound
1 | 206 | c1ccc(-c2ccc(-c3cnc(-c4ccccc4)[nH]3)cn2)cc1
2 | 125 to 131 | CCCCCCCCNc1c(Nc2ccc(CC(C)NC[C@H](O)COc3cccc4[nH]c5ccccc5c34)cc2)c(=O)c1=O (stereo partly specified)
3 | 119 to 120 | CCOC(=O)C1Cc2cc(C(=O)c3ccccc3F)c(O)c(Cl)c2O1 (stereo unspecified)
4 | 259 to 260 | NS(=O)(=O)c1ccc(-c2nc(C(F)(F)F)[nH]c2-c2ccc(F)cc2)cc1
5 | 124 to 126 | O=[N+]([O-])c1ccc(OCc2ccc(F)cc2)cc1
6 | 120 to 123 | CS(=O)(=O)c1ccc(-n2nc(CCCO)cc2-c2ccccc2)cc1
7 | 61.5 to 62.5 | Cc1cccc(C(=O)C(=O)c2ccccc2)c1C
8 | 158 to 159 | COc1cccc(-c2ccc3cc(OC)ccc3c2C(=O)c2ccc(O)cc2)c1
9 | 155 | O=C1c2ccccc2C(=O)N1CCOc1nc(-c2ccccc2)c2cc(Cl)ccc2n1
10 | 173 to 175 | CCC(C)c1ccc(-n2c(-c3ccc(OCCO)cc3)nc3ccccc3c2=O)cc1 (stereo unspecified)
11 | 225 to 227 | CCCCc1nc2ccccc2n1Cc1ccc(-c2ccccc2C(=O)O)cc1
12 | 155 to 157 | COc1ccccc1-n1cnc2c(C(N)=O)nc(Nc3cccc(O)c3)nc21
13 | 180 | CCOc1cccc(-c2nc(=O)c3ccccc3s2)n1
14 | 137 to 139 | O=C(Oc1ccccc1)N1CCC(c2nn(C(=O)c3ccccc3)c3cc(F)ccc23)CC1
15 | 267 to 272 | c1ccc2c(Nc3ccc4[nH]ncc4c3)nc(-c3ccc4c(c3)CCO4)nc2c1
16 | 170 to 171 | COc1cc(-c2cc(=O)c3ccc(OCC(O)CN4CCN(c5ccccc5)CC4)cc3o2)cc(OC)c1OC (stereo unspecified)
17 | 83 to 85 | CCOC(=O)c1ccc(N2CCC(NC[C@H](O)COc3ccc(O)c(S(C)(=O)=O)c3)CC2)cc1
18 | 128 to 130 | Cc1ccc(S(=O)(=O)NCCc2cccc(OCCN)c2)cc1
19 | 144 to 154 | CC(C)C(=O)C(=Cc1ccccc1)C(=O)Nc1ccccc1
20 | 196 to 198 | Cc1cnc(CO)cc1C(c1cc(F)ccc1F)S(=O)(=O)c1ccc(Cl)cc1 (stereo unspecified)
21 | 83 to 85 | CC1COC(C2CCC(O)C2)N1C(=O)c1ccccc1 (stereo unspecified)
22 | 98 to 107 | CCCn1cc(Cc2ccc(C(=O)O)cc2OC)c2cc(CC3CCN(C)C3=O)ccc21 (stereo unspecified)
23 | 86 | CCCCCCn1c(-c2ccc(Cl)c(S(=O)(=O)N(C)C)c2)csc1=Nc1ccccc1
24 | 101 to 105 | CC(C)(C)CC(C)(C)c1cc(N=Nc2ccc(C(F)(F)F)cc2[N+](=O)[O-])c(O)c(C(C)(C)c2ccccc2)c1
25 | 115 to 116 | CCOc1nn(Cc2ccc(OCc3ccccc3)cc2)cc1CCC(=O)O
26 | 77 to 81 | O=C(O)CCSc1ccc(CNC(=O)C2Cc3ccccc3N2S(=O)(=O)c2ccc(-c3cccc(C(F)(F)F)c3)cc2)cc1 (stereo unspecified)
27 | 98 to 101 | CCOC(=O)N(c1ccccc1)c1cc(Cl)ccc1N
28 | 66 to 80 | COc1cc(C2CCN(C[C@H](O)CO)CC2)ccc1Nc1ncc2ccc(-c3ccccc3OC)n2n1
29 | 131 to 132 | Cc1cc(C)c2occ(-c3ccccc3)c2c1

More lines, now with the values behind:

Row | Compound | melting point [°C]
30 | CCc1nc2c(N)nc3cc(CCC(=O)N(C)C)ccc3c2n1CC(C)(C)O | 234 to 237
31 | COc1c(C)cnc(CSc2nc3cc4c(cc3[nH]2)OC(F)C(F)(F)O4)c1C (stereo unspecified) | 138 to 140
32 | CCCCC1(N(C)C)CC=C(c2[nH]c3ccccc3c2Cc2ccccc2)CC1 (stereo unspecified) | 107 to 115
33 | FC(F)(F)c1ccc(N2CCNCC2)nc1 | 45 to 47
34 | NS(=O)(=O)c1c(Cl)nc2n1CCS2(=O)=O | 246 to 247
35 | C[C@H]1CCCC(C)(C)[C@@H]1[C@H](O)c1ccc(C#N)c(C(F)(F)F)c1 | 118 to 119
36 | CC(C)(C)c1cc(C2=CCCCC2)c(O)c(C(C)(C)C)c1 | 102 to 104
37 | CC(C)c1ccc(C(=O)CCCCl)cc1 | 35 to 37
38 | O=C(Cl)N1CC(Sc2ccc(Cl)cc2)C1 | 47 to 48
39 | COc1cc(OC)c(C(=O)C=Cc2ccc3c(c2)OCO3)c(OP(=O)(O)O)c1 | 79 to 80
40 | CNC(=O)NC(=O)C(CC1CCCC1OC1CCCCO1)c1ccc(Cl)c(Cl)c1 (stereo unspecified) | 68 to 70
41 | Nc1c2c(nc3ccccc13)CCSC2 | 214 to 216
42 | CN1C=CCC(C(=O)NCCc2ccc(OC(=O)C(C)(C)C)c(OC(=O)C(C)(C)C)c2)=C1 | 45 to 48
43 | CCCCCCCCCCCCSC(C)Cn1ccnc1 (stereo unspecified) | 79.5 to 81
44 | Cc1csc(C(=O)OC(C)C)c1N | 40
45 | CCOP(=O)(Cc1cc(C)c(O)c(C)c1)OCC | 65
46 | CCCCc1cc2c3c(c[nH]c3c1)CC1C2CC(NC(=O)c2ccccc2)CN1C (stereo unspecified) | 143 to 145
47 | O=C(O)C1OCC(O)C(O)C1O (stereo unspecified) | 194 to 196
48 | CCN(CCO)c1ccc(C(=O)OC)cc1 | 61 to 64
49 | CCn1ncnc1COc1nn2c(-c3ccccc3F)nncc2c1C(C)(C)C | 105
50 | CC1(C(=O)O)CCC2(C)CCC3(C)C(=CCC4C5(C)CCC(O)C(C)(C)C5CCC43C)C2C1 (stereo unspecified) | 329 to 331

Row | Compound | melting point [°C]
51 | CC#CCOc1ccc(S(=O)(=O)N(C)CCC(=O)O)cc1 | 90 to 110
52 | COC1C(CO)OC(n2c3ccc(CO)cc3c3c4c(c5c6cc(CO)ccc6[nH]c5c32)C(=O)NC4=O)C(O)C1O (stereo unspecified) | > 300
53 | O=Cc1c(O)c(O)cc2ccccc12 | 132 to 133
54 | O=C1Cn2cccc2Sc2ccc(Cl)cc21 | 106 to 107
55 | COc1ccc2cc(N3CCC4(CCN(C)CC4)CC3)ccc2c1 | 122 to 125
56 | COCc1cccc(C(O)c2nc(OC)cc(OC)n2)c1N (stereo unspecified) | 40 to 42
57 | CC1(C)CNc2cc3[nH]c(-c4cccnc4)nc3cc21 | 213 to 215
58 | COc1ccc(NS(=O)(=O)CC(=O)O)cc1[N+](=O)[O-] | 154 to 156
59 | O=C(CCCCl)c1cc2c3c(c1)CCN3C(=O)CC2 | 123 to 124
60 | Cc1onc(NS(=O)(=O)c2ccccc2-c2ccc(-c3ncco3)cc2CN(C)C(=O)CC(C)(C)C)c1C | 120 to 128
61 | Clc1ccc2c(c1)C(c1ccccc1Cl)=NCc1c[nH]cc1-2 | 204 to 206
62 | CCOc1cc2ncc(C#N)c(C)c2cc1OCC | 140 to 145
63 | CCCCCNC12CN3CN(CN(C3)C1)C2 | 119 to 120
64 | CN1CCN(c2cccc3ccc(N)cc23)CC1 | 157 to 159
65 | CCN(CC)CCCC(=O)c1ccc2c(c1)Cc1cc(C(=O)CCCN(CC)CC)ccc1-2 | 79 to 81
66 | Cn1c(C(F)(F)F)cc(=O)n(-c2c(F)cc(Cl)c3cc(CO)oc23)c1=O | 198 to 199
67 | Nc1nc(Cl)c(CCCl)c(Cl)n1 | 210 to 213
68 | c1csc(-c2cnc(-c3cccs3)o2)c1 | 64.5 to 66
69 | CCCCOc1c(CNC(=O)OC(C)(C)C)n(CC(C)C)c(=O)c2ccc(/C=C/c3cscn3)cc12 | 141 to 142
70 | CC(C)(C)c1cc(CSCCC(=O)NCCCCCCNC(=O)CCSCc2cc(C(C)(C)C)c(O)c(C(C)(C)C)c2)cc(C(C)(C)C)c1O | 126 to 130
71 | O=C1NC(=O)c2c1c(-c1ccccc1Cl)cc1c2c(Cl)c(CO)n1CCCO | 218 to 219
